# From patent US20170072033A1, “LIPOSOMAL COMPOSITIONS FOR MUCOSAL DELIVERY” (GlaxoSmithKline Biologicals, SA, priority 2014, published 2017)
# Assay: Rabbit pyrogen test
# Settings: ng CRX-601/kg animal body weight
# Experimental: The test was performed at Pacific Biolabs (Hercules, Calif.) as per their SOP 16E-02, which follows procedures outlined in USP<151>.
smiles,measurement,value
CCCCCCCCCCC[C@H](CC(=O)N[C@H]1[C@H](OC[C@H](NC(=O)C[C@@H](CCCCCCCCCCC)OCCCCCCCCCC)C(=O)O)O[C@H](CO)[C@@H](OP(=O)(O)O)[C@@H]1OC(=O)C[C@@H](CCCCCCCCCCC)OCCCCCCCCCC)OCCCCCCCCCC [CRX-601],max non-pyrogenic dose,0.0025 µg/kg
